The term IC50 denotes the concentration needed to halve the response being measured. A low value points to higher potency.

For experiment [1], the system named is K. pneumoniae clinical strains expressing β-lactamases. The experiment can be described thus: BLI potentiation MIC, panel of K. pneumoniae clinical strains expressing β-lactamases (isoxazoline vs. isoxazole). In kind it is cell-based. The conditions noted are these: in combination with Meropenem and LCB10-0200; Table 12. The procedure: MIC90 (μg/mL) is the lowest concentration of an antibiotic that will inhibit the visible growth of 90% of microorganisms after incubation as compared with a control group to which the antibiotic is not treated.
MIC values were measured by the broth microdilution method developed by the Clinical and Laboratory Standards Institute (CLSI) (see CLSI M07-A9, Methods for Dilution Antimicrobial Susceptibility Test for Bacteria that Grow Aerobically; Approved Standard-Ninth Edition (2012): CLSI, Villanova, Pa.). The in vitro antibacterial activity was measured with respect to the following 9 clinical isolates: P. aeruginosa (3 strains); K. pneumoniae (6 strains). The in vitro antibacterial activity of selected compounds was measured with respect to the following 15 clinical isolates: K. pneumoniae (15 strains).

Experiment [2] concerns the target T1, NDM-1 β-lactamase (class B) (Klebsiella pneumoniae, UniProt C7C422).
T1 construct: MICs of bacterial strains used for extraction of enzymes; endogenous in cells; host or cells: bacterial strain carrying NDM-1 (E. coli according to the earlier reading)
The experiment can be described thus: Inhibitory activity against β-lactamases (nitrocefin), NDM-1. It counts as biochemical. The conditions noted are these: 100 μM nitrocefin, 30° C., pH 6.8. The procedure: (§1) More diluted stocks were prepared as necessary. Enzyme activity was determined by monitoring the change of absorbance at 492 nm using the characteristic molecular extinction coefficient (Δε492=17,400 M^−1 cm^−1) of nitrocefin by a Shimazu UV-1650PC spectrophotometer. The nitrocefin was purchased from OXOID. Kinetic measurements were run at 30° C. in 10 mM MES[2-(N-morpholino)ethanesulfonic acid]buffer (pH 6.8) or 10 mM MES[2-(N-morpholino)ethanesulfonic acid] buffer (pH 6.8), […] BSA and 50 mM sodium bicarbonate. Reactions were performed in 2.5 mL cuvettes with 100 μM nitrocefin and initiated by adding 1.5 nM to 2.5 nM enzyme. The first 180 s of each reaction was used to measure initial rates. Data were evaluated using Microsoft Excel. Concentration dependent inhibition of enzyme was measured using different concentrations of inhibitors resulting from two-fold dilution series. Reaction progress at every concentration of inhibitor was measured in triplicates. IC50 values were calculated using 4-parameter log fits using XL Fit curve fitting software (www.idbs.com) for Excel using the following equation:
(§2) [formula] where y is the remaining enzyme activity (in %) and x is the corresponding concentration. he fitted IC50 parameter is the relative IC50, and is defined as the concentration giving a response half way between the fitted top (B) and bottom (A) of the curve.

Experiment [3] addresses KPC-3 β-lactamase (class A) (Klebsiella pneumoniae, UniProt Q9F663, H272Y). The experiment can be described thus: Inhibitory activity against β-lactamases (nitrocefin), KPC-3. In kind it is biochemical, K. pneumoniae. The procedure: as §1, §2
Experiment [4] addresses T2, CMY-10 β-lactamase (class C) (Klebsiella aerogenes, UniProt Q99QC1).
T2 construct: MICs of bacterial strains used for extraction of enzymes; endogenous in cells
The experiment can be described thus: Inhibitory activity against β-lactamases (nitrocefin), CMY-10. It counts as biochemical. The procedure:
as §1, §2

In experiment [5] the target is T3, OXA-48 β-lactamase (class D) (Klebsiella pneumoniae, UniProt Q6XEC0).
T3 construct: MICs of bacterial strains used for extraction of enzymes; endogenous in cells; host or cells: bacterial strain carrying OXA-48 (E. coli according to the earlier reading)
The experiment can be described thus: Inhibitory activity against β-lactamases (nitrocefin), OXA-48. It counts as biochemical. The conditions noted are these: 100 μM nitrocefin, 30° C., pH 6.8. The procedure:
as §1, §2

Structures can show the parent of a compound that is named as a salt.

Sequence of KPC-3 β-lactamase (class A) (Q9F663 25-293 H272Y): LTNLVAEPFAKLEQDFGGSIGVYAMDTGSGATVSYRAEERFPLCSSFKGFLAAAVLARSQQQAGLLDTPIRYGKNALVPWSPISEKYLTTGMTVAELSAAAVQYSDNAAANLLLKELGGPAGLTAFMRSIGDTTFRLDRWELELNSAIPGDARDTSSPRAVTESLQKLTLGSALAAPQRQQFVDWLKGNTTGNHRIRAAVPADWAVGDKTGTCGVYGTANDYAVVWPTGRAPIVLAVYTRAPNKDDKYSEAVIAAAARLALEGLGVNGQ
T1 sequence (C7C422 29-270, looked up): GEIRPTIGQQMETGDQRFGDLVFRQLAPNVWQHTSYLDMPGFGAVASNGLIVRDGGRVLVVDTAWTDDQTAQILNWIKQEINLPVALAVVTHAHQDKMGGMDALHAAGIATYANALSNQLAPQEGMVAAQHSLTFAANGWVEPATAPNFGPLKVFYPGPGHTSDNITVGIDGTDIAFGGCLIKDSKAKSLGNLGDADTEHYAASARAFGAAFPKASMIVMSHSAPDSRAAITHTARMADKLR
T2 sequence (Q99QC1 24-382): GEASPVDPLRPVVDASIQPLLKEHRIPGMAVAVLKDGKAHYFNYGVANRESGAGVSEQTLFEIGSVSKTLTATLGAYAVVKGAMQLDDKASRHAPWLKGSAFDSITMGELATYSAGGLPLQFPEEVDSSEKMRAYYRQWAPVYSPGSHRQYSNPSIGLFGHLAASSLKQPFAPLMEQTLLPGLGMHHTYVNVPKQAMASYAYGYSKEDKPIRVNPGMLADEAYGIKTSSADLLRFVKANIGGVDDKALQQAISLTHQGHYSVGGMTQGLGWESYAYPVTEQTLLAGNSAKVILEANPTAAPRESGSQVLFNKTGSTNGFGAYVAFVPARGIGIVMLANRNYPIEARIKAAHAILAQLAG
T3 sequence (Q6XEC0 23-265, looked up): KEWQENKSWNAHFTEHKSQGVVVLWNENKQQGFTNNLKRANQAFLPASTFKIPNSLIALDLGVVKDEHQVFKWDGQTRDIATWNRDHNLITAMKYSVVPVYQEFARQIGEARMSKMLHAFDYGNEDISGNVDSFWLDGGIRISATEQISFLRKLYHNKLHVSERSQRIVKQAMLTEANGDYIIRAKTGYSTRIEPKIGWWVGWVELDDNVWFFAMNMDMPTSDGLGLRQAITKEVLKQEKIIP

`NC[C@H]1CC([C@@H]2CC[C@@H]3CN2C(=O)N3OS(=O)(=O)O)=NO1` [Example 15, [(2S)-2-[(5R)-5-(aminomethyl)-4,5-dihydroisoxazol-3-yl]-7-oxo-1,6-diazabicyclo[3.2.1]octan-6-yl] hydrogen sulfate]: the “coverage on various β-lactamases compared with Cubist-1” value in experiment [1] was “much broader coverage on various β-lactamases than Cubist-1”. The IC50 in experiment [2] is 1650 µM; in experiment [3], 3.03 µM; in experiment [4] it was 0.123 µM; in experiment [5], 6.42 µM.

These data come from patent US10273235B2, “Compositions and methods for inhibiting β-lactamase” (LegoChem Biosciences, Inc., priority 2015, dated 2019).
